In patent US11214803B2, “Modulators of YAP1 expression” (Ionis Pharmaceuticals, Inc., priority 2019, dated 2022):
Strand notation (5' to 3'): a small letter for the sugar, then the base; units joined by * are phosphorothioate-linked, units joined directly phosphodiester-linked; [ ] holds rarer units or linkages, { } end groups; capitals alone tell only the bases. e = 2'-O-(2-methoxyethyl) (MOE); k = constrained ethyl (cEt); [5mC] = 5-methylcytosine; d = 2'-deoxy (DNA); m = 2'-O-methyl

These substances were tested on Yap1 mRNA (assay: Antisense inhibition of human Yap1 in SNU-449 cells by modified oligonucleotides, single dose (Example 5, RTS36584)). Details: Table 39; SNU-449 cells, 10,000 cells per well, free uptake, 2,000 nM oligonucleotide, approx. 48 hours; RTS36584; normalized to RIBOGREEN; Yap1 mRNA relative to untreated control.
Type: cell-based
Procedure: Modified oligonucleotides with additional chemistry modifications were designed to target a Yap1 nucleic acid and were tested for their effect on Yap1 mRNA level in SNU-449 cells. The modified oligonucleotides were tested in a series of experiments that had similar culture conditions. Cultured SNU-449 cells at a density of 10,000 cells per well were treated using free uptake with 2,000 nM of modified oligonucleotide. After a treatment period of approximately 48 hours, RNA was isolated from the cells and Yap1 mRNA levels were measured by quantitative real-time RTPCR. Human primer probe set RTS36584 was used to measure mRNA levels. Yap1 mRNA levels were normalized to total RNA content, as measured by RIBOGREEN®. Results are presented in the tables below as percent control of the amount of Yap1 mRNA relative to untreated control cells (% UTC). The modified oligonucleotides with percent control values marked with an asterisk (*) target the amplicon region of the primer probe set. Additional assays may be used to measure the potency and efficacy of the modified oligonucleotides targeting the amplicon region.
Several different chemistry modifications were tested, which are specified in the Chemistry Notation column of the tables below, wherein the notation “d” refers to a 2′-deoxyribose sugar, the notation “s” refers to a phosphorothioate (P═S) internucleoside linkage, the notation “k” refers to a cEt modified sugar, the notation “y” refers to a 2′-O-methyl ribose sugar, the notation “e” refers to a MOE modified sugar, and the notation “^mC” refers to a 5-methylcytosine.
“Start site” indicates the 5′-most nucleoside to which the gapmer is targeted in the human gene sequence. “Stop site” indicates the 3′-most nucleoside to which the gapmer is targeted human gene sequence. […] Activity of the modified oligonucleotide may be defined in a different experiment.
With “1198452 (kA*d[5mC]*dT*dA*dA*dG*dT*dA*dA*dG*dG*kT*eT*kT*e[5mC]*k[5mC]; antisense) [Compound 1198452]” the “YAP1 (% UTC)” value was 38 % UTC. “1198408 (kG*dT*dG*d[5mC]*dT*dT*dT*dG*dG*dA*dA*kG*eA*kT*e[5mC]*kT; antisense) [Compound 1198408]” was tested, and the “YAP1 (% UTC)” value was 41 % UTC.

Same assay, conditions: Table 40 (separate experiment); SNU-449 cells, 10,000 cells per well, free uptake, 2,000 nM oligonucleotide, approx. 48 hours; RTS36584; normalized to RIBOGREEN; Yap1 mRNA relative to untreated control
In the case of “1198777 (kA*eT*kT*dG*d[5mC]*dA*dA*dT*d[5mC]*dT*dG*dT*e[5mC]*eT*kG*kA; antisense) [Compound 1198777]”, the “YAP1 (% UTC)” value was 84 % UTC. In the case of “1198741 (kT*eT*kA*d[5mC]*dA*dT*dT*dA*dG*dG*dA*dA*e[5mC]*eA*kA*kG; antisense) [Compound 1198741]”, the “YAP1 (% UTC)” value was 60 % UTC. With “1198757 (kA*eG*kT*dG*d[5mC]*dT*dT*dT*dG*dG*dA*dA*eG*eA*kT*k[5mC]; antisense) [Compound 1198757]” the “YAP1 (% UTC)” value was 4 % UTC. In the case of “1198803 (antisense kT*eT*kA*dG*dA*d[5mC]*dT*dA*dA*dG*dT*dA*eA*eG*kG*kT) [Compound 1198803]”, the “YAP1 (% UTC)” value was 62 % UTC.

Same assay, conditions: Table 41; SNU-449 cells, 10,000 cells per well, free uptake, 2,000 nM modified oligonucleotide, approximately 48 hours; RTS36584; normalized to RIBOGREEN; Yap1 mRNA relative to untreated control cells
“1198768 (kA*eT*kA*dT*dG*dG*dT*dT*dT*dT*dG*dT*eG*eT*kG*kT; antisense) [Compound 1198768]” was tested, and the “YAP1 (% UTC)” value was 61 % UTC. With “1198643 (kA*kT*dA*dT*dT*dA*dG*dA*dG*dT*dA*dT*kG*eT*kG*eG; antisense) [Compound 1198643]” the “YAP1 (% UTC)” value was 25 % UTC.

Same assay, conditions: Table 42 (separate experiment); SNU-449 cells, 10,000 cells per well, free uptake, 2,000 nM modified oligonucleotide, approximately 48 hours; RTS36584; normalized to RIBOGREEN; Yap1 mRNA relative to untreated control cells
In the case of “1198215 (kT*k[5mC]*dT*dA*dT*dA*dT*dT*dA*dG*dA*eG*eT*eA*kT*kG; antisense) [Compound 1198215]”, the “YAP1 (% UTC)” value was 120 % UTC. In the case of “1198705 (kT*kA*dA*dG*dG*dT*dT*dT*d[5mC]*d[5mC]*d[5mC]*dA*kG*eA*kT*eT; antisense) [Compound 1198705]”, the “YAP1 (% UTC)” value was 70 % UTC. In the case of “1198709 (k[5mC]*kT*dA*dA*dG*dT*dA*dA*dG*dG*dT*dT*kT*e[5mC]*k[5mC]*e[5mC]; antisense) [Compound 1198709]”, the “YAP1 (% UTC)” value was 29 % UTC.

Same assay, conditions: Table 43 experiment; SNU-449 cells, 10,000 cells per well, free uptake, 2,000 nM, approximately 48 hours; RTS36584; Yap1 mRNA normalized to RIBOGREEN, relative to untreated control cells
With “1198484 (antisense kG*k[5mC]*dA*d[5mC]*dT*dT*dT*dT*dA*d[5mC]*dA*eT*kT*eA*kG*eG) [Compound 1198484]” the “YAP1 (% UTC)” value was 18 % UTC. With “1198247 (kA*kT*dT*d[5mC]*dA*dG*dA*dT*dT*dT*dA*eG*eG*eA*kT*kG; antisense) [Compound 1198247]” the “YAP1 (% UTC)” value was 99 % UTC. In the case of “1198265 (kT*kT*dT*dA*dT*dG*dT*dA*dA*dT*dA*eT*eT*eG*k[5mC]*kA; antisense) [Compound 1198265]”, the “YAP1 (% UTC)” value was 111 % UTC. In the case of “1198270 (kT*kA*dA*dA*dG*dT*dG*dT*dA*dT*dG*eT*e[5mC]*eA*kG*kA; antisense) [Compound 1198270]”, the “YAP1 (% UTC)” value was 52 % UTC.

Same assay, conditions: Table 44 experiment; SNU-449 cells, 10,000 cells per well, free uptake, 2,000 nM, approximately 48 hours; RTS36584; Yap1 mRNA normalized to RIBOGREEN, relative to untreated control cells
“1198520 (kT*kG*dT*dA*dA*dT*dA*dT*dT*dG*d[5mC]*eA*kA*eT*k[5mC]*eT; antisense) [Compound 1198520]” was tested, and the “YAP1 (% UTC)” value was 51 % UTC. “1198541 (antisense kT*kT*dA*dG*dA*d[5mC]*dT*dA*dA*dG*dT*eA*kA*eG*kG*eT) [Compound 1198541]” was tested, and the “YAP1 (% UTC)” value was 34 % UTC.

Same assay, conditions: Table 45; Yap1 mRNA as percent of untreated control, SNU-449 cells, single dose
With “1198965 (k[5mC]*kT*dT*dT*dA*dA*dA*dG*dT*dG*dT*kA*dT*kG*dT*k[5mC]; antisense) [Compound 1198965]” the “YAP1 (% UTC)” value was 95 % UTC. For “1198958 (kT*kG*dT*dA*dT*dG*dT*d[5mC]*dA*dG*dA*kA*dG*kA*dG*kT; antisense) [Compound 1198958]”, the “YAP1 (% UTC)” value was 12 % UTC. “1198909 (kG*kG*dT*dA*dT*dA*dA*d[5mC]*dT*dG*dG*kG*d[5mC]*kA*dA*kA; antisense) [Compound 1198909]” was tested, and the “YAP1 (% UTC)” value was 56 % UTC. For “1198897 (kA*kT*dG*dG*dA*dA*dA*dT*dT*dG*dT*k[5mC]*dT*k[5mC]*dA*kT; antisense) [Compound 1198897]”, the “YAP1 (% UTC)” value was 61 % UTC.

Same assay, conditions: Table 46; Yap1 mRNA as percent of untreated control, SNU-449 cells, single dose
With “1198871 (kT*kT*dT*dA*dT*dG*dT*dA*dA*dT*dA*kT*eT*kG*e[5mC]*kA; antisense) [Compound 1198871]” the “YAP1 (% UT)” value was 77 % UT. In the case of “1198887 (kG*kA*d[5mC]*dT*dA*dA*dG*dT*dA*dA*dG*kG*eT*kT*eT*k[5mC]; antisense) [Compound 1198887]”, the “YAP1 (% UT)” value was 71 % UT. For “1198809 (antisense kG*kG*dA*dA*dA*dT*dT*dG*dT*d[5mC]*dT*k[5mC]*eA*kT*eG*k[5mC]) [Compound 1198809]”, the “YAP1 (% UT)” value was 27 % UT.

Same assay, conditions: Table 48; Yap1 mRNA level relative to untreated control; modified oligonucleotides targeting SEQ ID NO.: 1 and 2
With “1198307 (kT*kT*kA*d[5mC]*dA*dT*dT*dA*dG*dG*dA*dA*k[5mC]*eA*kA*eG; antisense) [Compound 1198307]” the “YAP1 (% UT)” value was 49 % UT. For “1198288 (kG*kA*kA*dA*dT*dT*dG*dT*d[5mC]*dT*d[5mC]*dA*kT*eG*k[5mC]*e[5mC]; antisense) [Compound 1198288]”, the “YAP1 (% UT)” value was 10 % UT. For “1198310 (kA*k[5mC]*kT*dT*dT*dT*dA*d[5mC]*dA*dT*dT*dA*kG*eG*kA*eA; antisense) [Compound 1198310]”, the “YAP1 (% UT)” value was 28 % UT. With “1198326 (kT*kT*kA*dG*dG*dA*dT*dG*d[5mC]*dA*dT*dG*kG*eT*kT*eT; antisense) [Compound 1198326]” the “YAP1 (% UT)” value was 84 % UT.

Same assay, conditions: Table 49; Yap1 mRNA level relative to untreated control; modified oligonucleotides targeting SEQ ID NO.: 1 and 2
With “1198576 (antisense kT*kT*kT*dG*dG*dA*dA*dG*dA*dT*d[5mC]*dT*kG*kA*kA*eA) [Compound 1198576]” the “YAP1 (% UT)” value was 92 % UT. For “1198584 (antisense TTAGGATGCATGGTTT; chemistry not fully specified) [Compound 1198584]”, the “YAP1 (% UT)” value was 37 % UT. In the case of “1198335 (kT*kT*kA*dT*dA*dT*dG*dG*dT*dT*dT*dT*kG*eT*kG*eT; antisense) [Compound 1198335]”, the “YAP1 (% UT)” value was 26 % UT. With “1198350 (kT*kA*kT*dG*dT*dA*dA*dT*dA*dT*dT*dG*k[5mC]*eA*kA*eT; antisense) [Compound 1198350]” the “YAP1 (% UT)” value was 83 % UT.

Same assay, conditions: Table 50; Yap1 mRNA remaining as percent of untreated control (UT), SNU-449 cells, single dose
For “1198589 (antisense k[5mC]*kA*kG*dA*dT*dT*dT*dA*dG*dG*dA*dT*kG*k[5mC]*kA*eT) [Compound 1198589]”, the “YAP1 (% UT)” value was 24 % UT. For “1197293 (k[5mC]*kA*k[5mC]*dT*mU*dT*dT*dA*d[5mC]*dA*dT*dT*dA*kG*kG*kA; antisense) [Compound 1197293]”, the “YAP1 (% UT)” value was 94 % UT. With “1198598 (antisense kA*kA*k[5mC]*dT*d[5mC]*dT*dT*dA*dT*dA*dT*dG*kG*kT*kT*eT) [Compound 1198598]” the “YAP1 (% UT)” value was 76 % UT.

Same assay, conditions: Table 51; Yap1 mRNA remaining as percent of untreated control (UT), SNU-449 cells, single dose
With “1197256 (antisense kA*kT*kT*dT*mA*dG*dG*dA*dT*dG*d[5mC]*dA*dT*kG*kG*kT) [Compound 1197256]” the “YAP1 (% UT)” value was 31 % UT. “1197312 (kT*kG*kT*dA*mU*dG*dT*d[5mC]*dA*dG*dA*dA*dG*kA*kG*kT; antisense) [Compound 1197312]” was tested, and the “YAP1 (% UT)” value was 10 % UT. For “1197299 (kA*kG*kG*dA*mU*dG*d[5mC]*dA*dT*dG*dG*dT*dT*kT*kT*kT; antisense) [Compound 1197299]”, the “YAP1 (% UT)” value was 41 % UT. With “1197289 (kG*kG*kT*dA*mU*dA*dA*d[5mC]*dT*dG*dG*dG*d[5mC]*kA*kA*kA) [Compound 1197289]” the “YAP1 (% UT)” value was 48 % UT.

Same assay, conditions: Yap1 mRNA, percent of untreated control; modified oligonucleotides targeting SEQ ID NO: 1 and 2; Table 47
“1198879 (k[5mC]*kT*dT*dT*dA*dA*dA*dG*dT*dG*dT*kA*eT*kG*eT*k[5mC]; antisense) [Compound 1198879]” was tested, and the “YAP1 (% UT)” value was 29 % UT. With “1197191 (antisense kA*kG*kT*dG*d[5mC]*dT*dT*dT*dG*dG*dA*dA*dG*kA*kT*k[5mC]) [Compound 1197191]” the “YAP1 (% UT)” value was 40 % UT. In the case of “1198873 (kA*kG*dT*dG*dT*dA*dT*dG*dT*d[5mC]*dA*kG*eA*kA*eG*kA; antisense) [Compound 1198873]”, the “YAP1 (% UT)” value was 4 % UT. For “1197192 (antisense kA*kT*kA*dG*dT*dG*d[5mC]*dT*dT*dT*dG*dG*dA*kA*kG*kA) [Compound 1197192]”, the “YAP1 (% UT)” value was 39 % UT. With “1197208 (antisense kT*kA*kA*dT*dA*dT*dT*dG*d[5mC]*dA*dA*dT*d[5mC]*kT*kG*kT) [Compound 1197208]” the “YAP1 (% UT)” value was 66 % UT.
